Target: T1, recombinant human NK3 receptor (Homo sapiens, UniProt P29371)
T1 construct: expressed in transfected cells; host or cells: HEK293 cells, transient expression; membranes
T1 sequence (P29371 1-465): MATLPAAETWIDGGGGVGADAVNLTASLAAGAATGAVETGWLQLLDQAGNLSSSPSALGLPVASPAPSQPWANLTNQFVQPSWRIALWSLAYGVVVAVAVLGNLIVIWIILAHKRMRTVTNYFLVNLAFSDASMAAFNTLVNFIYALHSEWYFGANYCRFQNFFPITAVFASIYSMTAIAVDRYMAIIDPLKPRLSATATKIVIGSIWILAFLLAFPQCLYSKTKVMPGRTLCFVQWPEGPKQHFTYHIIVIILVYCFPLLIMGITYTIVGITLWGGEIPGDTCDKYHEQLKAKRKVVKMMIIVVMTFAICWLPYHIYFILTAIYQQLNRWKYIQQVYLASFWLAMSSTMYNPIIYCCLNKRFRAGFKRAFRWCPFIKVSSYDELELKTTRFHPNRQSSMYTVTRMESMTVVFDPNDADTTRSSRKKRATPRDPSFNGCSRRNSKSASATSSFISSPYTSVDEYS
Test: [3H]SR142801 competition binding assay
Settings: membranes from HEK293 cells transiently expressing recombinant human NK3 receptor; [3H]SR142801 radioligand; read-out: Data Ki (hNK-3 receptor affinity)
Experimental: [^3H]SR142801 Competition Binding Assay
hNK3 receptor binding experiment were performed using [^3H]SR142801 (Catalog No. TRK1035, specific activity: 74.0 Ci/mmol, Amersham, G E Healthcare UK limited, Buckinghamshire, UK) and membrane isolated from HEK293 cells transiently expressing recombinant human NK3 receptor. After thawing, the membrane homogenates were centrifuged at 48,000×g for 10 min at 4° C., the pellets were resuspended in the 50 mM Tris-HCl, 4 mM MnCl2, 1 μM phosphoramidon, 0.1% BSA binding buffer at pH 7.4 to a final assay concentration of 5 μg protein/well. For inhibition experiments, membranes were incubated with [^3H]SR142801 at a concentration equal to KD value of radioligand and 10 concentrations of the inhibitory compound (0.0003-10 μM) (in a total reaction volume of 500 μl) for 75 min at room temperature (RT). At the end of the incubation, membranes were filtered onto unitfilter (96-well white microplate with bonded GF/C filter preincubated 1 h in 0.3% PEI+0.3% BSA, Packard BioScience, Meriden, Conn.) with a Filtermate 196 harvester (Packard BioScience) and washed 4 times with ice-cold 50 mM Tris-HCl, pH 7.4 buffer. Nonspecific binding was measured in the presence of 10 μM SB222200 for both radioligands. The radioactivity on the filter was counted (5 min) on a Packard Top-count microplate scintillation counter with quenching correction after addition of 45 μl of microscint 40 (Can berra Packard S. A., Zürich, Switzerland) and shaking for 1 h. Inhibition curves were fitted according to the Hill equation: y=100/(1+(x/IC50)^nH), where nH=slope factor using Excel-fit 4 software (Microsoft). IC50 values were derived from the inhibition curve and the affinity constant (Ki) values were calculated using the Cheng-Prussoff equation Ki=IC50/(1+[L]/KD) where [L] is the concentration of radioligand and KD is its dissociation constant at the receptor, derived from the saturation isotherm. All experiments were performed in duplicate and the mean±standard error (SEM) of the individual Ki values was calculated.

Row | Ki [nM] | SMILES
1 | 387 | N#Cc1ccccc1N1CCN(C(=O)[C@@H]2C[C@H](n3nnc(-c4ccc(F)cc4F)n3)CN2Cc2ccc(F)c(F)c2)CC1 [Example 9, 2-(4-{(2S,4S)-1-(3,4-Difluoro-benzyl)-4-[5-(2,4-difluoro-phenyl)-tetrazol-2-yl]-pyrrolidine-2-carbonyl}-piperazin-1-yl)-benzonitrile]
2 | 295 | N#Cc1ccccc1N1CCN(C(=O)[C@@H]2C[C@H](n3nnc(-c4ccc(F)cc4F)n3)CN2Cc2cccc(Cl)c2)CC1 [Example 6, 2-(4-{(2S,4S)-1-(3-Chloro-benzyl)-4-[5-(2,4-difluoro-phenyl)-tetrazol-2-yl]-pyrrolidine-2-carbonyl}-piperazin-1-yl)-benzonitrile]
3 | 23 | N#Cc1ccccc1N1CCN(C(=O)[C@@H]2C[C@H](n3nnc(-c4ccc(F)cc4F)n3)CN2Cc2ccccc2F)CC1 [Example 2, 2-{4-[(2S,4S)-4-[5-(2,4-Difluoro-phenyl)-tetrazol-2-yl]-1-(2-fluoro-benzyl)-pyrrolidine-2-carbonyl]-piperazin-1-yl}-benzonitrile]
4 | 84 | N#Cc1ccccc1N1CCN(C(=O)[C@@H]2C[C@H](n3nnc(-c4ccc(F)cc4F)n3)CN2Cc2ccccc2)CC1 [Example 1, 2-(4-{(2S,4S)-1-Benzyl-4-[5-(2,4-difluoro-phenyl)-tetrazol-2-yl]-pyrrolidine-2-carbonyl}-piperazin-1-yl)-benzonitrile]
5 | 320 | N#Cc1ccccc1N1CCN(C(=O)[C@@H]2C[C@H](n3nnc(-c4ccc(F)cc4F)n3)CN2Cc2cccc(F)c2)CC1 [Example 3, 2-{4-[(2S,4S)-4-[5-(2,4-Difluoro-phenyl)-tetrazol-2-yl]-1-(3-fluoro-benzyl)-pyrrolidine-2-carbonyl]-piperazin-1-yl}-benzonitrile]
6 | 696 | N#Cc1ccccc1N1CCN(C(=O)[C@@H]2C[C@H](n3nnc(-c4ccc(F)cc4F)n3)CN2CC2CCCCC2)CC1 [Example 8, 2-(4-{(2S,4S)-1-Cyclohexylmethyl-4-[5-(2,4-difluoro-phenyl)-tetrazol-2-yl]-pyrrolidine-2-carbonyl}-piperazin-1-yl)-benzonitrile]
7 | 280 | N#Cc1ccccc1N1CCN(C(=O)[C@@H]2C[C@H](n3nnc(-c4ccc(F)cc4F)n3)CN2Cc2ccccc2Cl)CC1 [Example 5, 2-(4-{(2S,4S)-1-(2-Chloro-benzyl)-4-[5-(2,4-difluoro-phenyl)-tetrazol-2-yl]-pyrrolidine-2-carbonyl}-piperazin-1-yl)-benzonitrile]
8 | 965 | N#Cc1ccccc1N1CCN(C(=O)[C@@H]2C[C@H](n3nnc(-c4ccc(F)cc4F)n3)CN2Cc2ccc(F)cc2)CC1 [Example 4, 2-{4-[(2S,4S)-4-[5-(2,4-Difluoro-phenyl)-tetrazol-2-yl]-1-(4-fluoro-benzyl)-pyrrolidine-2-carbonyl]-piperazin-1-yl}-benzonitrile]
9 | 208 | N#Cc1ccccc1N1CCN(C(=O)[C@@H]2C[C@H](n3nnc(-c4ccc(F)cc4F)n3)CN2Cc2ccc(Cl)cc2)CC1 [Example 7, 2-(4-{(2S,4S)-1-(4-Chloro-benzyl)-4-[5-(2,4-difluoro-phenyl)-tetrazol-2-yl]-pyrrolidine-2-carbonyl}-piperazin-1-yl)-benzonitrile]

Target: T2, NK3 tachykinin receptor (Homo sapiens, UniProt P29371)
T2 sequence (P29371 1-465): T1 sequence (P29371 1-465)
Test: not given
Settings: phase II trial; negative symptoms (depression, anhedonia, social isolation, memory and attention deficits); cited from earlier work

Row | SMILES | activity in treatment of negative symptoms of schizophrenia
10 | CC(=O)N(C)C1(c2ccccc2)CCN(CCC[C@]2(c3ccc(Cl)c(Cl)c3)CCCN(C(=O)c3ccccc3)C2)CC1 [SR 142,801, Osanetant] | inactive

Same assay, conditions: phase II trial; positive symptoms (altered behavior, delusion, hallucinations, extreme emotions, excited motor activity, incoherent speech); cited from earlier work

Row | SMILES | activity on positive symptoms of schizophrenia
11 | CC(=O)N(C)C1(c2ccccc2)CCN(CCC[C@]2(c3ccc(Cl)c(Cl)c3)CCCN(C(=O)c3ccccc3)C2)CC1 [SR 142,801, Osanetant] | active

Reference: US7501422B2, “Prolinamide-tetrazole derivatives as NK3 receptor antagonists” (Hoffmann-La Roche Inc., priority 2007, dated 2009)
